Activity calls are given as the source filed them. The calls are words filed in the database; no cut-off is given here.
Legend:
Aurora kinase B [1] = target: T1, Aurora kinase B (Homo sapiens, UniProt Q96GD4); experiment: Inhibition of aurora-B (unknown origin)
Aurora kinase A = target: T2, Aurora kinase A (Homo sapiens, UniProt O14965); experiment: Inhibition of aurora-A (unknown origin)
T2 sequence (O14965 whole entry): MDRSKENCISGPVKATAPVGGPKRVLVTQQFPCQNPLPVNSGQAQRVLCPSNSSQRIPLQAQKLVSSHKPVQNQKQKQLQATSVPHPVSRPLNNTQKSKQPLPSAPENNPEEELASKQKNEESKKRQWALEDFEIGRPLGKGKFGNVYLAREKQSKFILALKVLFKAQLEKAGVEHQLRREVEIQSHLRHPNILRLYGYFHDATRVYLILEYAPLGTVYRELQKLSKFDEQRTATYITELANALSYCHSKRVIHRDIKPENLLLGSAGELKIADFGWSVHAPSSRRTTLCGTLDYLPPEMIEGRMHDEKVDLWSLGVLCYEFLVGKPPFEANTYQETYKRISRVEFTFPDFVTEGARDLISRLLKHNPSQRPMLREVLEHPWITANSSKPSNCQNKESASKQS

MIA PaCa-2 [2] = experiment: Antiproliferative activity against human MIAPaCa2 cells; format: functional, cell-based
[3] = target: Proto-oncogene tyrosine-protein kinase receptor Ret (Homo sapiens, UniProt P07949); experiment: Inhibition of Ret (unknown origin)
Chain of Proto-oncogene tyrosine-protein kinase receptor Ret (P07949 whole entry): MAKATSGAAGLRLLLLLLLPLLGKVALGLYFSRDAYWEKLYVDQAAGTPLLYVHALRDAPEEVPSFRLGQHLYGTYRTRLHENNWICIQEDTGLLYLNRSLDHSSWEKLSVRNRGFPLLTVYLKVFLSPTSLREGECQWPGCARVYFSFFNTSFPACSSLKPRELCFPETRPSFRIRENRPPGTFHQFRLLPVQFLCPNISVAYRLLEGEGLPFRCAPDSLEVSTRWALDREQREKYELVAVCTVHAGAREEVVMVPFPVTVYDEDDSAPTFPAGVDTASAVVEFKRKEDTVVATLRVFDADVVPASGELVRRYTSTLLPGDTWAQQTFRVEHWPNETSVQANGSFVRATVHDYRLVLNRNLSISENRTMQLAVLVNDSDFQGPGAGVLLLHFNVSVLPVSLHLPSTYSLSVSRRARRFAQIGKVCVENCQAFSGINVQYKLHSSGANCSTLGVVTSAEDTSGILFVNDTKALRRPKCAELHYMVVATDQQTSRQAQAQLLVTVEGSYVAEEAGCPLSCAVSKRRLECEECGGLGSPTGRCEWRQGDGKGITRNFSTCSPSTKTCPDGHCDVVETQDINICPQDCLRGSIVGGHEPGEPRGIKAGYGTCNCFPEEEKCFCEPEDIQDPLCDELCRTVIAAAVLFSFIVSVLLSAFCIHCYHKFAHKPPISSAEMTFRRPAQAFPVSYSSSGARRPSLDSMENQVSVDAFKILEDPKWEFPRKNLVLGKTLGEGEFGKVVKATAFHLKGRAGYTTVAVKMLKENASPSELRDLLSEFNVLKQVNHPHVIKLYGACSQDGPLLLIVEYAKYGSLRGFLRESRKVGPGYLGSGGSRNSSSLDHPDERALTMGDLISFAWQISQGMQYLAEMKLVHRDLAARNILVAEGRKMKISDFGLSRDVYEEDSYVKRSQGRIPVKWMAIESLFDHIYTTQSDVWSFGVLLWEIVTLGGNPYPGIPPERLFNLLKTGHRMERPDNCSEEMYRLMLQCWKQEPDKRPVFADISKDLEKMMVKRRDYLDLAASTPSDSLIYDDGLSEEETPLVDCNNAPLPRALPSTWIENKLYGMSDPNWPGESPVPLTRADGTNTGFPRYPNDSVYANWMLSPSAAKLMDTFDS

Activated CDC42 kinase 1 = Activated CDC42 kinase 1 (Homo sapiens, UniProt Q07912); experiment: Inhibition of ACK1 (unknown origin)
[4] = target: Fibroblast growth factor receptor 1 (Homo sapiens, UniProt P11362); experiment: Inhibition of FGFR1 (unknown origin)
LIM domain kinase 1 = LIM domain kinase 1 (Homo sapiens, UniProt P53667); experiment: Inhibition of LIMK1 (unknown origin)
Chain of LIM domain kinase 1 (P53667 whole entry, the tested form may be a part): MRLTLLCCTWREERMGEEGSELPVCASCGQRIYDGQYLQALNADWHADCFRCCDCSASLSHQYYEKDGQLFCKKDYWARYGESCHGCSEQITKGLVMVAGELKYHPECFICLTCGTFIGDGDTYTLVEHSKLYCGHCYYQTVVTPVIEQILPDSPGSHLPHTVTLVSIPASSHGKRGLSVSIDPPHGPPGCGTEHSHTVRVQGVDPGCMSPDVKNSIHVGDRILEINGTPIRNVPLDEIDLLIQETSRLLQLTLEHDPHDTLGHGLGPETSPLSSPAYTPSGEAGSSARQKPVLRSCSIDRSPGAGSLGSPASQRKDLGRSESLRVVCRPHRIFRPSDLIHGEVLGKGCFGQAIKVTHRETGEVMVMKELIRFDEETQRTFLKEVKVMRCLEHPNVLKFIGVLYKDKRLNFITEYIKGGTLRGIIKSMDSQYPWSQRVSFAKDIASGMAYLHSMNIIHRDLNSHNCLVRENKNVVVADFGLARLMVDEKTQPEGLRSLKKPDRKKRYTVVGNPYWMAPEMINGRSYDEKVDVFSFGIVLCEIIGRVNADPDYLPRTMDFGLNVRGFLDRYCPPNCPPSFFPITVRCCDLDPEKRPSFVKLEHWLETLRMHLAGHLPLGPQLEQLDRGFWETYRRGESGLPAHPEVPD

[5] = target: Vascular endothelial growth factor receptor 3 (Homo sapiens, UniProt P35916); experiment: Inhibition of Flt4 (unknown origin)
Chain of Vascular endothelial growth factor receptor 3 (P35916 whole entry): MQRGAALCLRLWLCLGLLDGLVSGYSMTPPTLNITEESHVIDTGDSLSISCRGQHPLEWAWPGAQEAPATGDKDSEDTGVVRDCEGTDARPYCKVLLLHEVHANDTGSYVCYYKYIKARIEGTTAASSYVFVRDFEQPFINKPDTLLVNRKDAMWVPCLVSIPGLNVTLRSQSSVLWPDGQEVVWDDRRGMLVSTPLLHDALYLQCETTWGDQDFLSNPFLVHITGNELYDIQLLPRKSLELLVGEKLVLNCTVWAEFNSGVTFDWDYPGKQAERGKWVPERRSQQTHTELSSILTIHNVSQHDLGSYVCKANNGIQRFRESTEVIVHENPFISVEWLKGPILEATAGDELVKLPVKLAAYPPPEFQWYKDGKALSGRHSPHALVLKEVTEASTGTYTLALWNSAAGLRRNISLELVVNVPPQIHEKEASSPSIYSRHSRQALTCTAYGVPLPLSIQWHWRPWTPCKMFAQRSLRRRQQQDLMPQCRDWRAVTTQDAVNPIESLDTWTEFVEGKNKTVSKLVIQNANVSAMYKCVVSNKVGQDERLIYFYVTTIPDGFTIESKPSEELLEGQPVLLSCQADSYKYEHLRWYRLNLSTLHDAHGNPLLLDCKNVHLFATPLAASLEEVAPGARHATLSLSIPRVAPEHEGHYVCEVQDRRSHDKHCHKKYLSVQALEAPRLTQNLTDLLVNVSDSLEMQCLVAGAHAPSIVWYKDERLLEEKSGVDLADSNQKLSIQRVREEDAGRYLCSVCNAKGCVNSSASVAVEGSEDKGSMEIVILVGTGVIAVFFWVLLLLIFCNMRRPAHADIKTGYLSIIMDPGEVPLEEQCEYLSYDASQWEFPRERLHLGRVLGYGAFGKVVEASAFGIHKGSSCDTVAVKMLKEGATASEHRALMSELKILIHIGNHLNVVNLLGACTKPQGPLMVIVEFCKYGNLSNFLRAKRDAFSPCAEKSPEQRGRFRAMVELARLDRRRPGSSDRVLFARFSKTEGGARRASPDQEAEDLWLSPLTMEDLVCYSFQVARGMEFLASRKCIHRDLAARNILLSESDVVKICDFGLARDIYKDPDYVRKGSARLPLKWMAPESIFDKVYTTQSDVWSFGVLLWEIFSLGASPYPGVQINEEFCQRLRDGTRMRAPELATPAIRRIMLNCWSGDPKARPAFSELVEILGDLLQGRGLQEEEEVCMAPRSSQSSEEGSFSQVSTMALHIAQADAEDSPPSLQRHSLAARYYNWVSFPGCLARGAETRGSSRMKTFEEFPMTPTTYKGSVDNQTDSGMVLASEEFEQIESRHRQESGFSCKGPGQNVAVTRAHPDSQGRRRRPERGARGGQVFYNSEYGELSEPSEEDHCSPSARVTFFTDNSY

[6] = target: Tyrosine-protein kinase HCK (Homo sapiens, UniProt P08631); experiment: Inhibition of Hck (unknown origin)
Chain of Tyrosine-protein kinase HCK (P08631 whole entry): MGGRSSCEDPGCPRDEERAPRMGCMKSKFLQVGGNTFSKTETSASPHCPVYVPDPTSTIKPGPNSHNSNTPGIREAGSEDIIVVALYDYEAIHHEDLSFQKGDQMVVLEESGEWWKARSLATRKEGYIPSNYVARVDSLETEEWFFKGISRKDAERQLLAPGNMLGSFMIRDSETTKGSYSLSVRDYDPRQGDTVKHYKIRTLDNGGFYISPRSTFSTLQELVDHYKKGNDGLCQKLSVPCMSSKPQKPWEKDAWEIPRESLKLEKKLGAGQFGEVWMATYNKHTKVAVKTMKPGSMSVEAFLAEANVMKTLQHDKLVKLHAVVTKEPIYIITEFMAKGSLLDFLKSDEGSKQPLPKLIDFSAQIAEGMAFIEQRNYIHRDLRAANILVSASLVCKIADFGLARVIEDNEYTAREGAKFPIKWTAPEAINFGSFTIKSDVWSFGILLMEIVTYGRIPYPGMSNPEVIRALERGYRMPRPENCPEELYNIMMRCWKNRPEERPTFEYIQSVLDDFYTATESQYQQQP

[7] = target: Serine/threonine-protein kinase Chk2 (Homo sapiens, UniProt O96017); experiment: Inhibition of CHK2 (unknown origin)
Chain of Serine/threonine-protein kinase Chk2 (O96017 whole entry): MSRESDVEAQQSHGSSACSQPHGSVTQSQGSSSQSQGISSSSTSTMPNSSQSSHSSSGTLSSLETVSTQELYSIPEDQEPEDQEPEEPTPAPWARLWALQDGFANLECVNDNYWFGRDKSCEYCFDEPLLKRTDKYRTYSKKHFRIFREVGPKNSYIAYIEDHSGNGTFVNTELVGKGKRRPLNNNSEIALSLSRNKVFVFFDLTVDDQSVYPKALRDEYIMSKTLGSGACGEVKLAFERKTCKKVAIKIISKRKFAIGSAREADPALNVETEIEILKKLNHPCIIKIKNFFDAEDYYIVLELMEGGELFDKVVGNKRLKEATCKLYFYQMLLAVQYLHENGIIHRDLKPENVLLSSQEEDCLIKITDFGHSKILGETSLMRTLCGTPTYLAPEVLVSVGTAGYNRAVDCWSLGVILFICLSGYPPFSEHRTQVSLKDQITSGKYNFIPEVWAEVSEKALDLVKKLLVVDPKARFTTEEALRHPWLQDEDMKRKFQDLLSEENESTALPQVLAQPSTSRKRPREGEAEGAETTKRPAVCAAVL

[8] = target: T3, Mitogen-activated protein kinase 13 (Homo sapiens, UniProt O15264); experiment: Inhibition of SAPK4 (unknown origin)
T3 sequence (O15264 whole entry): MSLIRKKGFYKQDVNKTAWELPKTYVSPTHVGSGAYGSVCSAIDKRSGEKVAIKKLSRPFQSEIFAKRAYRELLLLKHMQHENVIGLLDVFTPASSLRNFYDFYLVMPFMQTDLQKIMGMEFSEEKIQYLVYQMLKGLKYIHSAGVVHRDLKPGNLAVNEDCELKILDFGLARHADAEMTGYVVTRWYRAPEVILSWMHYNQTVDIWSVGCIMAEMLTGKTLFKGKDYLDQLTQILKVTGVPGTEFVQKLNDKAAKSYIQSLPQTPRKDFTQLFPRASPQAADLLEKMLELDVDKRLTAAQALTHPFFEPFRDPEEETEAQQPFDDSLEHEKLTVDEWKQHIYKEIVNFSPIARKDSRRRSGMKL

[9] = target: High affinity nerve growth factor receptor (Homo sapiens, UniProt P04629); experiment: Inhibition of TrkA (unknown origin)
[10] = target: Serine/threonine-protein kinase WNK3 (Homo sapiens, UniProt Q9BYP7); experiment: Inhibition of WNK3 (unknown origin)
[11] = target: Serine/threonine-protein kinase SIK1 (Homo sapiens, UniProt P57059); experiment: Inhibition of SIK (unknown origin)
[12] = Solubility of the compound; format: physicochemical
Aurora kinase B [13] = target: T1, Aurora kinase B; experiment: Inhibition of aurora-B in human MIAPaCa2 cells assessed as reduction of phosphorylation of histone H3; format: cell-based, MIA PaCa-2
[14] = Clearance in mouse at 5 mg/kg, iv; format: ADME, organism-based; design: dose 5 mg/kg, route intravenous; settings: in vivo
[15] = Half life in mouse at 5 mg/kg, iv; format: ADME, organism-based; design: dose 5 mg/kg, route intravenous; settings: in vivo
[16] = target: Macrophage colony-stimulating factor 1 receptor (Homo sapiens, UniProt P07333); experiment: Inhibition of Fms (unknown origin)
[17] = AUC in mouse at 5 mg/kg, po; format: ADME, organism-based; design: dose 5 mg/kg, route oral; settings: plasma
[18] = Half life in mouse at 5 mg/kg, po; format: ADME, organism-based; design: dose 5 mg/kg, route oral; settings: in vivo
[19] = Cmax in mouse at 5 mg/kg, po; format: ADME, organism-based; design: dose 5 mg/kg, route oral; settings: in vivo
Mus musculus = experiment: Inhibition of aurora-B in mouse bone marrow assessed as reduction of phosphorylation of histone H3 at 150 and 300 mg/kg, po after 2 hrs; format: functional
[20] = target: Tyrosine-protein kinase Blk (Homo sapiens, UniProt P51451); experiment: Inhibition of Blk (unknown origin)
Chain of Tyrosine-protein kinase Blk (P51451 whole entry): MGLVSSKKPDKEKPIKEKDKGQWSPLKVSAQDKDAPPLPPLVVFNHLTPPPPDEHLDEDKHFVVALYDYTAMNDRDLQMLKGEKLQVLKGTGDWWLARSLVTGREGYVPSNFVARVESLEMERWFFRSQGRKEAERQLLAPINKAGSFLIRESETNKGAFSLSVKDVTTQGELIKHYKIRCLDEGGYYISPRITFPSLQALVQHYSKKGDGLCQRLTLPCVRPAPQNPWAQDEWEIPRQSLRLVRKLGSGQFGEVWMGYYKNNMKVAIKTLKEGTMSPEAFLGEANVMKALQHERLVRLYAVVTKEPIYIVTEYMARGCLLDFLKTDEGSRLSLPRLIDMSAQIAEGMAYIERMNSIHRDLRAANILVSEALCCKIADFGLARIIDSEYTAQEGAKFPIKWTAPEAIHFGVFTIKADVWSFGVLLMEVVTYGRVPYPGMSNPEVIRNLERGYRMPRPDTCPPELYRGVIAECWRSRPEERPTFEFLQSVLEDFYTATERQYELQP

[21] = AUC in mouse at 5 mg/kg, iv; format: ADME, organism-based; design: dose 5 mg/kg, route intravenous; settings: plasma
MIA PaCa-2 [22] = experiment: Induction of endoreduplication human MIAPaCa2 cells assessed as accumulation of cells with >4N DNA content after 24 hrs; format: functional, cell-based
[23] = Volume of distribution at steady state in mouse at 5 mg/kg, iv; format: ADME, organism-based; design: dose 5 mg/kg, route intravenous; settings: in vivo, read-out: Vdss
[24] = Oral bioavailability in mouse at 5 mg/kg; format: ADME, organism-based; settings: in vivo
[25] = Cmax in mouse at 5 mg/kg, iv; format: ADME, organism-based; design: dose 5 mg/kg, route intravenous; settings: in vivo
[26] = target: Tyrosine-protein kinase ABL2 (Homo sapiens, UniProt P42684); experiment: Inhibition of Arg (unknown origin)

T1 sequence (Q96GD4 whole entry): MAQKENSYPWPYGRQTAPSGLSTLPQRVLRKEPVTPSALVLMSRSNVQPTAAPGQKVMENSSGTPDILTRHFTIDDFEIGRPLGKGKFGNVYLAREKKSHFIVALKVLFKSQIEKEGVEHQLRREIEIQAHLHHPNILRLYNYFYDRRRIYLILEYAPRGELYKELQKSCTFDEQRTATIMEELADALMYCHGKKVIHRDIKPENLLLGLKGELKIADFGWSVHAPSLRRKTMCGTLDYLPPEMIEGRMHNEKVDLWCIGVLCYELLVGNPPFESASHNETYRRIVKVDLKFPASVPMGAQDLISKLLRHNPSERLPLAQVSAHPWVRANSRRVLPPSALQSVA

## O=C(Nc1ccc(Nc2ccnc3[nH]c(=O)c4ccccc4c23)cc1)c1ccccc1C(F)(F)F
Aurora kinase B [1]
  IC50: 0.001 µM
Aurora kinase A
  IC50: 0.004 µM
MIA PaCa-2 [2]
  IC50: 0.405 µM

## O=C(Nc1ccc(Nc2ccnc3[nH]c(=O)c4ccccc4c23)cn1)c1ccccc1
Aurora kinase B [1]
  IC50: 0.013 µM
Aurora kinase A
  IC50: 0.07 µM

## Nc1ccc(Nc2ccnc3[nH]c(=O)c4ccccc4c23)cc1
Aurora kinase B [1]
  IC50: 0.174 µM
Aurora kinase A
  IC50: 1.15 µM

## O=C(Nc1ccc(Nc2ccnc3[nH]c(=O)c4ccccc4c23)cc1)c1cc(F)cc(F)c1
Aurora kinase B [1]
  IC50: 0.0007 µM
Aurora kinase A
  IC50: 0.007 µM
MIA PaCa-2 [2]
  IC50: 0.823 µM

## O=C(Nc1ccc(Nc2ccnc3[nH]c(=O)c4ccccc4c23)cc1)c1c(F)cccc1F
Aurora kinase B [1]
  IC50: 0.0006 µM
Aurora kinase A
  IC50: 0.005 µM
MIA PaCa-2 [2]
  IC50: 0.293 µM

## O=C(Nc1ccc(Nc2ccnc3[nH]c(=O)c4ccccc4c23)cc1)c1ccccc1F
Aurora kinase B [1]
  IC50: 0.002 µM
Aurora kinase A
  IC50: 0.009 µM
MIA PaCa-2 [2]
  IC50: 6.25 µM

## O=C(Nc1ncc(Nc2ccnc3[nH]c(=O)c4ccccc4c23)cn1)c1ccccc1
Aurora kinase B [1]
  IC50: 0.021 µM
Aurora kinase A
  IC50: 0.088 µM

## O=C(Nc1ccc(Nc2ccnc3[nH]c(=O)c4ccccc4c23)cc1)c1cccc(C(F)(F)F)c1F
Aurora kinase B [1]
  IC50: 0.001 µM
Aurora kinase A
  IC50: 0.007 µM
MIA PaCa-2 [2]
  IC50: 0.253 µM

## O=C(Nc1ccc(Nc2ccnc3[nH]c(=O)c4ccccc4c23)cc1)c1cc(F)cc(C(F)(F)F)c1
Aurora kinase A
  IC50: 0.009 µM
MIA PaCa-2 [2]
  IC50: 0.211 µM

## O=C(Nc1ccc(Nc2ccnc3[nH]c(=O)c4ccccc4c23)cc1)c1ccccc1
Aurora kinase B [1]
  IC50: 0.001 µM
[3]
  IC50: 0.015 µM
Activated CDC42 kinase 1
  IC50: 0.149 µM
[4]
  IC50: 0.175 µM
LIM domain kinase 1
  IC50: 0.036 µM
[5]
  IC50: 0.417 µM
[6]
  IC50: 0.958 µM
[7]
  IC50: 0.041 µM
Aurora kinase A
  IC50: 0.004 µM
[8]
  IC50: 0.411 µM
MIA PaCa-2 [2]
  IC50: 0.329 µM
[9]
  IC50: 0.819 µM
[10]
  IC50: 0.401 µM
[11]
  IC50: 0.211 µM
[12]
  solubility: < 1 µM
Aurora kinase B [13]
  IC50: 0.208 µM

## O=C(Nc1ccc(Nc2ccnc3[nH]c(=O)c4ccccc4c23)cc1)c1cccc(F)c1
Aurora kinase B [1]
  IC50: 0.001 µM
Aurora kinase A
  IC50: 0.007 µM
MIA PaCa-2 [2]
  IC50: 0.919 µM

## O=c1[nH]c2nccc(Nc3ccccc3)c2c2ccccc12
Aurora kinase A
  IC50: 1.03 µM

## Cc1ccc(C(=O)Nc2ccc(Nc3ccnc4[nH]c(=O)c5ccccc5c34)cc2)cc1
Aurora kinase B [1]
  IC50: 0.002 µM
Aurora kinase A
  IC50: 0.003 µM
MIA PaCa-2 [2]
  IC50: 2.39 µM

## O=C(Nc1ccc(Nc2ccnc3[nH]c(=O)c4ccccc4c23)cc1)c1ccc(C(F)(F)F)cc1
Aurora kinase B [1]
  IC50: 0.006 µM
Aurora kinase A
  IC50: 0.027 µM
MIA PaCa-2 [2]
  IC50: 2.71 µM

## O=C(Nc1ccc(Nc2ccnc3[nH]c(=O)c4ccccc4c23)cc1)c1ccc(F)cc1C(F)(F)F
Aurora kinase B [1]
  IC50: 0.0004 µM
[14]
  clearance: 19.7 mL/min/kg
[3]
  IC50: 0.706 µM
[15]
  half-life: 1.36 h
[16]
  IC50: 0.575 µM
[17]
  AUC: 1440 ng·h/mL
LIM domain kinase 1
  IC50: 0.018 µM
[5]
  IC50: 0.867 µM
[7]
  IC50: 0.161 µM
[18]
  half-life: 2.74 h
Aurora kinase A
  IC50: 0.0003 µM
[19]
  Cmax: 321 ng/mL
MIA PaCa-2 [2]
  IC50: 0.17 µM
Mus musculus
  inhibition in vivo at 300 mg/kg: 40%
[20]
  IC50: 0.959 µM
[21]
  AUC: 4190 ng·h/mL
MIA PaCa-2 [22]
  Activity: Active
[23]
  Vd: 1.48 L/kg
Aurora kinase B [13]
  IC50: 0.052 µM
[24]
  bioavailability: 41%
[25]
  Cmax: 3930 ng/mL
[26]
  IC50: 0.863 µM

## CNc1ccc(Nc2ccnc3[nH]c(=O)c4ccccc4c23)cc1
Aurora kinase A
  IC50: 0.471 µM

## O=C(Nc1ccc(Nc2ccnc3[nH]c(=O)c4ccccc4c23)nc1)c1ccccc1
Aurora kinase B [1]
  IC50: 0.079 µM
Aurora kinase A
  IC50: 0.615 µM

## O=C(Nc1ccc(Nc2ccnc3[nH]c(=O)c4ccccc4c23)cc1)c1ccc(C(F)(F)F)cc1F
Aurora kinase A
  IC50: 0.009 µM
MIA PaCa-2 [2]
  IC50: 4.99 µM

## Nc1ccnc2[nH]c(=O)c3ccccc3c12
Aurora kinase A
  IC50: 3.01 µM

## O=c1[nH]c2nccc(Cl)c2c2ccccc12
Aurora kinase B [1]
  IC50: 1.44 µM
Aurora kinase A
  IC50: 3.01 µM

## O=C(Nc1ccc(Nc2ccnc3[nH]c(=O)c4ccccc4c23)cc1)c1ccc(F)cc1F
Aurora kinase B [1]
  IC50: 0.001 µM
Aurora kinase A
  IC50: 0.002 µM
MIA PaCa-2 [2]
  IC50: 0.374 µM

## COc1ccccc1C(=O)Nc1ccc(Nc2ccnc3[nH]c(=O)c4ccccc4c23)cc1
Aurora kinase B [1]
  IC50: 0.002 µM
Aurora kinase A
  IC50: 0.007 µM
MIA PaCa-2 [2]
  IC50: 2.22 µM

## COc1cccc(F)c1C(=O)Nc1ccc(Nc2ccnc3[nH]c(=O)c4ccccc4c23)cc1
Aurora kinase B [1]
  IC50: 0.001 µM
Aurora kinase A
  IC50: 0.003 µM
MIA PaCa-2 [2]
  IC50: 1.19 µM

## O=C(Nc1ccc(Nc2ccnc3[nH]c(=O)c4ccccc4c23)cc1)c1ccc(F)cc1
Aurora kinase B [1]
  IC50: 0.001 µM
Aurora kinase A
  IC50: 0.004 µM
MIA PaCa-2 [2]
  IC50: 0.719 µM

## O=C(Nc1ccc(Nc2ccnc3[nH]c(=O)c4ccccc4c23)cc1)c1cccc(F)c1F
Aurora kinase B [1]
  IC50: 0.0005 µM
Aurora kinase A
  IC50: 0.002 µM
MIA PaCa-2 [2]
  IC50: 0.209 µM

## O=C(Nc1ccc(Nc2ccnc3[nH]c(=O)c4ccccc4c23)cc1)c1ccc(F)c(F)c1
Aurora kinase B [1]
  IC50: 0.0008 µM
Aurora kinase A
  IC50: 0.007 µM
MIA PaCa-2 [2]
  IC50: 0.409 µM

## O=c1[nH]c2ncccc2c2ccccc12
Aurora kinase A
  IC50: 5.54 µM

Reference: ChEMBL document CHEMBL2380198, “SAR and evaluation of novel 5H-benzo[c][1,8]naphthyridin-6-one analogs as Aurora kinase inhibitors” (Bioorg Med Chem Lett, 2013)
